Assay results from patent publication US20200399238A1, “THERAPEUTIC AURONES” (MIDDLE TENNESSEE STATE UNIVERSITY, priority 2016, published 2020).
pIC50: −log10 of the molar value. Like-named read-outs stand apart in the source and are kept apart here.

Key:
TNFα = experiment: Cytokine response by ELISA, TNFα; format: cell-based, human; settings: for effect on TNFα expression: LPS-stimulated THP-1, ELISA
Description: (§1) Dexamethasone is a synthetic glucocorticoid that suppresses LPS-induced pro-inflammatory cytokine expression and was used as a control (Abraham, Lawrence et al. 2006). Supernatants were collected for human cytokine ELISAs and the manufacturer's protocol was followed to assess the cytokine response. Cells remaining after the supernatant collection were tested for relative viability by Alamar Blue cytotoxicity assay as previously described.

[1] = test system: PMA-differentiated THP-1 cells; experiment: Alamar Blue cell viability assay, THP-1; format: cell-based, human; settings: THP-1 cells, 4 h with LPS, mean ± SD
Description: THP-1 cells were maintained in RPMI 1640 medium supplemented with 10% heat-inactivated FBS and 1% penicillin/streptomycin (complete culture medium) at 37° C. with 5% CO2 supplemented. Cell concentrations were adjusted to desired concentrations for each experiment by centrifugation at 500×g for 5 min and resuspended in complete culture medium with 100 nM of PMA. Cell concentration was adjusted to 5×10^5 cells/ml for all assays with the exception of 2.5×10^5 cells/ml were used for NF-κB nuclear translocation assay. Cells were seeded onto 96-, 24-, or 12-well plates and incubated for 48 to 72 h to allow for differentiation. Cells were washed with serum-free RPMI 1640 medium before each experiment to remove undifferentiated cells. […] Cells were seeded into tissue culture plates at 10% confluence and grown to 80% confluence within 72 h. For live cell microscopy, 1×10^5 cells/ml were seeded into 35 mm glass-bottom (MatTek) dishes 24 h prior to imaging. For luciferase assays, 1.2×10^5 cells/well were seeded into 24-well tissue culture-treated plates.
Following treatment, the relative cell viability was measured by Alamar Blue assay. For Alamar Blue assays, supernatants were replaced with culture medium containing 1× Alamar Blue reagent and incubated overnight. Cell viability was assessed by measuring relative fluorescent units (RFU) on the SpectraMax M2e microplate reader (Molecular Devices Inc., Sunnyvale, Calif., USA) at Ex 560 nm and Em 590 nm. The results were expressed as a percentage relative to LPS alone control cells. The effects of the vehicle control, DMSO, on cell viability were also assessed.
as §1

[2] = test system: C. albicans (ATCC strain 90028); experiment: Antifungal microdilution broth assay (PrestoBlue), C. albicans; format: cell-based, Candida albicans; settings: Candida albicans, ATCC90028, across C. albicans, C. glabrata, and C. tropicalis; read-out: IC50 values against Candida species
Summary of the method: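 Inoculum of 1.5×10^3 cells/mL in RPMI-MOPS (0.165 M MOPS, pH 7.0), exposed to aurones for 24 h at 35 °C. Growth read by PrestoBlue (10% final) fluorescence at ex 560/em 590 nm.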

C. gattii strains = experiment: CLSI micro-dilution MIC, C. gattii strains; format: cell-based; settings: Cryptococcus gattii
Description: (§2) The A27-M2 CLSI standard micro-dilution method was used to screen an aurone library (MTSU Department of Chemistry) for inhibition of Cryptococcus neoformans (Cn). Each aurone was screened in triplicate. […] Toxicity assays were conducted on human THP1 macrophages and L6 rat fibroblasts.
(§3) The inhibition of Cn strains and C. gattii strains by Aurone 9051 (also referred to as “Aurone X”) was characterized in different medias (including RPMI 1640 (Standard), RPMI 1640+MOPS, Asparagine media, minimal media, or yeast extract peptone dextrose (YPD) media), against other serotypes and strains, and at different cell concentrations. Synergy of the compounds with current drugs was characterized, and a growth curve experiment was conducted.

[3] = test system: rat skeletal muscle cell line, L6; experiment: cells; format: cell-based; settings: rat, 71.5 h
[4] = test system: Cryptococcus neoformans (Cn); experiment: CLSI micro-dilution inhibition / MIC, Cryptococcus neoformans; format: cell-based
Description: C. neoformans (strain 1199s) was prepared following CLSI guidelines for the organism (CLSI, Reference Method for Broth Dilution Antifungal Susceptibility Testing of Yeasts, Approved Standard-Third. Edition, Clinical Laboratory Standards Institute, Wayne, Pa., 2008).
as §2, §3

p65 (NF-κB) = experiment: Indirect immunofluorescence for NF-κB nuclear translocation, THP-1; format: cell-based, human; settings: dose of 10 μM; THP-1, LPS 30 min
Description: Bay 11-7082 is a compound that inhibits LPS-induced activation of IKKα/β, thereby suppressing downstream IκBα phosphorylation/degradation and p65 nuclear translocation and was used as a positive control (Catalan, Fernandez-Castillejo et al. 2012). Treated cells were fixed, permeabilized, blocked, and stained with p65 (NF-κB) primary antibody, Dylight 488 conjugated secondary antibody, and Hoechst 33342 dye, sequentially. The Hoechst and DyLight fluorophores detect changes in nuclear morphology (blue fluorescence) and NF-κB distribution (green fluorescence), respectively. Nuclear Translocation Bioapplication software on the Arrayscan VTI reader was used for image acquisition and data analysis (Thermo Fisher Scientific, Waltham, Mass., USA). For each well, at least 400 cells were automatically acquired and analyzed. The translocation index was calculated by measuring the average intensity difference of NF-κB between the identified cytoplasmic region and nuclear region.

[5] = LPS-stimulated THP-1 cells, 20 and 40 μM (one cell for all concentrations)
[6] = LPS-stimulated THP-1 cells, 20 μM, mean ± SD

O=C1/C(=C/c2cccc(O)c2)Oc2ccccc21 [Aurone 5, (Z)-2-(3-hydroxybenzylidene)benzofuran-3(2H)-one]
Average % TNF-α Inhibition (TNFα; LPS-stimulated THP-1 cells, 20, 25 and 40 μM (one cell for all concentrations)): No Inhibitions | Average % Viability (4 h with LPS) ([1]; 20 μM): 94.6 ± 1.2% | Average % Viability (4 h with LPS) ([1]; 25 μM): 92.9 ± 1.4% | Average % Viability (4 h with LPS) ([1]; 40 μM): 90.9 ± 0.6%

O=C1/C(=C/c2ccc(O)cc2)Oc2ccccc21 [Aurone 6, (Z)-2-(4-hydroxybenzylidene)benzofuran-3(2H)-one]
Average % TNF-α Inhibition (TNFα; [5]): No Inhibitions | Average % Viability (4 h with LPS) ([1]; 20 μM): 99.8 ± 1.5% | Average % Viability (4 h with LPS) ([1]; 40 μM): 98.5 ± 0.1%

O=C1/C(=C/c2ccccn2)Oc2ccccc21 [Aurone 9051]
pIC50 [2]: 4.74 to 5.00 | MIC (C. gattii strains; read-out: MIC, C. gattii strain R265): 25 µg/mL | MIC (C. gattii strains; read-out: MIC, C. gattii strain R272): 25 µg/mL | toxicity to L6 rat fibroblasts [3]: > 100 µM | MIC ([4]; 10^3 cells, read-out: MIC, Cn): 25 µg/mL | MIC ([4]; 10^4 cells, read-out: MIC, Cn): 50 µg/mL | MIC ([4]; 10^5 cells, read-out: MIC, Cn): 100 µg/mL | MIC ([4]; C. neoformans 24067 (lab), serotype D, RPMI + MOPS, inoculum 2 × 10^3 CFU/ml): 112 µM | MIC ([4]; C. neoformans B18 (clinical), serotype A, RPMI + MOPS, inoculum 2 × 10^3 CFU/ml): 112 µM | MIC ([4]; C. neoformans B45 (clinical), serotype A, RPMI + MOPS, inoculum 2 × 10^3 CFU/ml): 112 µM | MIC ([4]; C. neoformans B58 (clinical), serotype A, RPMI + MOPS, inoculum 2 × 10^3 CFU/ml, read-out: MIC): 56 µM | MIC ([4]; C. neoformans B3501 (lab), serotype D, RPMI + MOPS, inoculum 2 × 10^3 CFU/ml): 112 µM | MIC ([4]; C. neoformans H99S, serotype A, Asparagine media, inoculum 2 × 10^3 CFU/ml): 112 µM | MIC ([4]; C. neoformans H99S, serotype A, Minimal media, inoculum 2 × 10^3 CFU/ml): > 4480 µM | MIC ([4]; C. neoformans H99S, serotype A, RPMI + MOPS, inoculum 2 × 10^3 CFU/ml): 112 µM | MIC ([4]; C. neoformans H99S, serotype A, RPMI + MOPS, inoculum 2 × 10^4 CFU/ml): 224 µM | MIC ([4]; C. neoformans H99S, serotype A, RPMI + MOPS, inoculum 2 × 10^5 CFU/ml): 448 µM | MIC ([4]; C. neoformans H99S, serotype A, YPD media, inoculum 2 × 10^3 CFU/ml): > 896 µM | MIC ([4]; C. neoformans JEC21 (lab), serotype D, RPMI + MOPS, inoculum 2 × 10^3 CFU/ml): 112 µM | MIC ([4]; in RPMI+MOPS, read-out: MIC, Cn): 12.5 µg/mL | MIC ([4]; in YPD, read-out: MIC, Cn): > 200 µg/mL | MIC ([4]; in asparagine media, read-out: MIC, Cn): 25 µg/mL | MIC ([4]; running text b175, read-out: MIC against Cryptococcus neoformans): 110 µM

Cc1ccc(S(=O)(=O)C=CC#N)cc1 [Bay 11-7082, 3-(4-methylphenylsulfonyl)-2-propenenitrile, reference compound]
cytoplasmic-to-nuclear translocation of p65 (p65 (NF-κB)): blocked p65 translocation

O=C1/C(=C/c2ccccc2O)Oc2ccccc21 [aurone 4, (Z)-2-(2-hydroxybenzylidene)benzofuran-3(2H)-one]
effect on TNFα expression (TNFα): low activity | Average % TNF-α Inhibition (TNFα; [6]): No Inhibition | Average % Viability (4 h with LPS) ([1]; 20 μM): 99.4 ± 0.5%

COc1cc(/C=C2\Oc3ccccc3C2=O)ccc1O [aurone 7, (Z)-2-(4-hydroxy-3-methoxybenzylidene)benzofuran-3(2H)-one]
effect on TNFα expression (TNFα): weaker activity | Average % TNF-α Inhibition (TNFα; [6]): No Inhibition | Average % Viability (4 h with LPS) ([1]; 20 μM): 97.0 ± 0.3%

COc1cccc(/C=C2\Oc3ccccc3C2=O)c1O [aurone 8, (Z)-2-(2-hydroxy-3-methoxybenzylidene)benzofuran-3(2H)-one]
effect on TNFα expression (TNFα): lack of activity | Average % TNF-α Inhibition (TNFα; [5]): No Inhibitions | Average % Viability (4 h with LPS) ([1]; 20 μM): 101.3 ± 2.6%

COc1ccc(/C=C2\Oc3ccccc3C2=O)cc1O [aurone 9, (Z)-2-(3-hydroxy-4-methoxybenzylidene)benzofuran-3(2H)-one]
effect on TNFα expression (TNFα): weaker activity | Average % TNF-α Inhibition (TNFα; [6]): No Inhibition | melting point: 186 to 187 °C | Average % Viability (4 h with LPS) ([1]; 20 μM): 101.8 ± 2.1%

Cc1ccc(/C=C2\Oc3ccccc3C2=O)o1 [compound 2]
effect on TNFα expression (TNFα): complete loss of activity | Average % TNF-α Inhibition (TNFα; LPS-stimulated THP-1 cells, 25, 50 and 100 μM (one cell for all concentrations)): No Inhibitions | Average % Viability (4 h with LPS) ([1]; 25 μM): 99.4 ± 9.3% | Average % Viability (4 h with LPS) ([1]; 50 μM): 118.3 ± 1.3% | Average % Viability (4 h with LPS) ([1]; 100 μM): 108.9 ± 2.0%

O=C1/C(=C/c2ccco2)Oc2ccccc21 [compound 3]
effect on TNFα expression (TNFα): complete loss of activity | Average % TNF-α Inhibition (TNFα; LPS-stimulated THP-1 cells, 12.5, 25 and 50 μM (one cell for all concentrations)): No Inhibitions | Average % Viability (4 h with LPS) ([1]; 12.5 μM): 104.3 ± 2.2% | Average % Viability (4 h with LPS) ([1]; 25 μM): 102.1 ± 0.8% | Average % Viability (4 h with LPS) ([1]; 50 μM): 92.2 ± 0.9%
